# Laboratory results taken from paper PMC9596378, “Discovery and molecular basis of subtype-selective cyclophilin inhibitors” (Nature Chemical Biology, 2022).
# Read-outs that look alike come from different tables or passages of the source.
# Assays:
# [1] = target: T1, CypB E121S (Homo sapiens, UniProt P23284, E121S); assay: biochemical; details: prolyl-isomerase inhibition; read-out: IC50 CypB E121S
# T1 construct: Lane 14- SNA-CypB E121S (34-216);; His6 tag with TEV site (2BT vector); SNA remnant stays on the N-terminus (N, cleaved yes); made in house; host or cells: E. coli BL21(DE3)
# T1 sequence (P23284 34-216 E121S): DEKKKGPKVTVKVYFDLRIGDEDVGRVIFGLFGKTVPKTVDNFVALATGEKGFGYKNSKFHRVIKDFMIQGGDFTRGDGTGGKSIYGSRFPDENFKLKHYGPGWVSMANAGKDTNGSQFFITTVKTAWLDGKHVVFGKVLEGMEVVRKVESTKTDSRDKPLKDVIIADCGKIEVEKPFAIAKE
# In short: (§1)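 5 nM Cyp, HEPES pH 7.3/NaCl/Triton buffer, 2–3 °C; cpd 5 min, chymotrypsin 25 µM 5 min, then Suc-AAPF-AMC 5 µM in LiCl/TFE. Kinetic fluorescence 330 s. Per-well rate constants, normalized, IC50 from nonlinear fit.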
# [2] = target: T2, CypD K118E (Homo sapiens, UniProt P30405, K118E); assay: Chymotrypsin coupled prolyl-isomerase assay; type: biochemical; details: prolyl-isomerase inhibition
# T2 construct: made in house; host or cells: E. coli BL21(DE3)
# T2 sequence (P30405 45-207 K118E): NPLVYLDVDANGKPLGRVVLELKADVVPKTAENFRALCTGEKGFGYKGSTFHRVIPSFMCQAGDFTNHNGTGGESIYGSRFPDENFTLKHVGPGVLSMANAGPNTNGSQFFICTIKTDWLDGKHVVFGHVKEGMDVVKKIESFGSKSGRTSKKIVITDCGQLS
# In short: as §1
# [3] = target: T3, CypC (Homo sapiens, UniProt P45877); assay: Chymotrypsin coupled prolyl-isomerase assay; type: biochemical
# T3 construct: PPIC (UniProtKB Entry P45877: residues 24–212); host or cells: E. coli BL21(DE3)
# T3 sequence (P45877 24-212): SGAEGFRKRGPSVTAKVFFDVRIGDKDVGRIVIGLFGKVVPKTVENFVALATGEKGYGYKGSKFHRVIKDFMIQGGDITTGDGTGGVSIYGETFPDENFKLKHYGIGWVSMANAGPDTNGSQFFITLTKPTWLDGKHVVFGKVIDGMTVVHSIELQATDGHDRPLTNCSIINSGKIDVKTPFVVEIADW
# In short: as §1
# [4] = target: T4, CypG (Homo sapiens, UniProt Q13427); assay: Chymotrypsin coupled prolyl-isomerase assay; type: biochemical
# T4 construct: PPIG (UniProtKB Entry Q13427: residues 1–179); His6 with thrombin site (pET28a LIC leader) (N); host or cells: E. coli BL21(DE3)
# T4 sequence (Q13427 1-179): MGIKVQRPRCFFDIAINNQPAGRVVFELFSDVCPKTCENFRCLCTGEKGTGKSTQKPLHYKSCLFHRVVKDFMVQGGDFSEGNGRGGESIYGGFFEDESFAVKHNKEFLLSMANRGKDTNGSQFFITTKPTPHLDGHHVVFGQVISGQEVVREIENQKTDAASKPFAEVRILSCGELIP
# In short: as §1
# [5] = target: T5, CypD S123E (Homo sapiens, UniProt P30405, S123E); assay: Chymotrypsin coupled prolyl-isomerase assay; type: biochemical; details: prolyl-isomerase inhibition
# T5 construct: made in house; host or cells: E. coli BL21(DE3)
# T5 sequence (P30405 45-207 S123E): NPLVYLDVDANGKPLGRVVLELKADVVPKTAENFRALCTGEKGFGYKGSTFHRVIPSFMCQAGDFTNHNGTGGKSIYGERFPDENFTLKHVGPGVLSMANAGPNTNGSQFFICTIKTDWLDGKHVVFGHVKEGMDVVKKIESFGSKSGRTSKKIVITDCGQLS
# In short: as §1
# [6] = target: T6, CypH (Homo sapiens, UniProt O43447); assay: Chymotrypsin coupled prolyl-isomerase assay; type: biochemical
# T6 construct: PPIH (UniProtKB Entry O43447: residues 1–177); His6 with TEV site (2BT vector leader) (N); made in house; host or cells: E. coli BL21(DE3)
# T6 sequence (O43447 whole entry, the tested form may be a part): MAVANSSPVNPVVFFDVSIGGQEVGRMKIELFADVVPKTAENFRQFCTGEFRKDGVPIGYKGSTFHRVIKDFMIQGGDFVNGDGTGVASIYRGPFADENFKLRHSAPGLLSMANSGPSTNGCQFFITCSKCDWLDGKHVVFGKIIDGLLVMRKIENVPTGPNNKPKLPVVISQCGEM
# In short: as §1
# [7] = target: T7, CypD R124K (Homo sapiens, UniProt P30405, R124K); assay: Chymotrypsin coupled prolyl-isomerase assay; type: biochemical; details: mutant CypD R124K; read-out: Mutant Cyclophilin Prolyl Isomerase Inhibition IC50 Values, CypD R124K
# T7 construct: made in house; host or cells: E. coli BL21(DE3)
# T7 sequence (P30405 45-207 R124K): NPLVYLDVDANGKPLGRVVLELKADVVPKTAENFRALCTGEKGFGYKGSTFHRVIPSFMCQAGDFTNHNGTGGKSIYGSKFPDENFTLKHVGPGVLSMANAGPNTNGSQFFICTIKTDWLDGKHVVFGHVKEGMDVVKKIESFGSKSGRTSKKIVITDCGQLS
# In short: as §1
# [8] = target: T8, CypA (Homo sapiens, UniProt P62937); assay: Chymotrypsin coupled prolyl-isomerase assay; type: biochemical; details: read-out: IC50 CypA
# T8 construct: PPIA (UniProtKB Entry P62937: residues 1–165); made in house; host or cells: E. coli BL21(DE3)
# T8 sequence (P62937 whole entry, the tested form may be a part): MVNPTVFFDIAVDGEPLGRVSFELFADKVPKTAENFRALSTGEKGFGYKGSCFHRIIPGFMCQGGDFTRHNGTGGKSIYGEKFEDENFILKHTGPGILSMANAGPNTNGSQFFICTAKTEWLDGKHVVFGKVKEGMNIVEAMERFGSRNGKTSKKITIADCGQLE
# In short: as §1
# [9] = target: T9, CypA E81S/K82R (Homo sapiens, UniProt P62937, E81S/K82R); assay: Chymotrypsin coupled prolyl-isomerase assay; type: biochemical; details: prolyl-isomerase inhibition; read-out: IC50 CypA E81S/K82R
# T9 construct: Lane 12- SNA-CypA E81S/K82R (1-165);; His6 tag with TEV site (2BT vector); SNA remnant stays on the N-terminus (N, cleaved yes); made in house; host or cells: E. coli BL21(DE3)
# T9 sequence (P62937 whole entry E81S/K82R): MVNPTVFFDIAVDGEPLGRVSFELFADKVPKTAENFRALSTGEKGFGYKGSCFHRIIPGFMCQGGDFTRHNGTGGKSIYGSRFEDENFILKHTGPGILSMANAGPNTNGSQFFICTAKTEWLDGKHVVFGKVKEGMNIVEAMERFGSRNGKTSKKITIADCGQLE
# In short: as §1
# [10] = target: T10, CypE (Homo sapiens, UniProt Q9UNP9); assay: Chymotrypsin coupled prolyl-isomerase assay; type: biochemical
# T10 construct: PPIE (UniProtKB Entry Q9UNP9: residues 131–301); host or cells: E. coli BL21(DE3)
# T10 sequence (Q9UNP9 131-301): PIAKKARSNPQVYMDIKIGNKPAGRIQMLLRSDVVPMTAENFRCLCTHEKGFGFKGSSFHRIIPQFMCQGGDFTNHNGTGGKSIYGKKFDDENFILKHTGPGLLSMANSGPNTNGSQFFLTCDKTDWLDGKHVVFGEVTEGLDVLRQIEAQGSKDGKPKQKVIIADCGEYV
# In short: as §1
# [11] = target: T11, CypD R124A (Homo sapiens, UniProt P30405, R124A); assay: Chymotrypsin coupled prolyl-isomerase assay; type: biochemical; details: mutant CypD R124A; read-out: Mutant Cyclophilin Prolyl Isomerase Inhibition IC50 Values, CypD R124A
# T11 construct: made in house; host or cells: E. coli BL21(DE3)
# T11 sequence (P30405 45-207 R124A): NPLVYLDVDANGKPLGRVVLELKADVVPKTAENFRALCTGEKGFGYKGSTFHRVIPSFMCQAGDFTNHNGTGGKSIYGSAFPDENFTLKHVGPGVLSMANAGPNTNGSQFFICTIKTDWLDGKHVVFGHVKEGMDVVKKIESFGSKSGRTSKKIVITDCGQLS
# In short: as §1
# [12] = target: T12, CypD K118A (Homo sapiens, UniProt P30405, K118A); assay: Chymotrypsin coupled prolyl-isomerase assay; type: biochemical; details: prolyl-isomerase inhibition
# T12 construct: made in house; host or cells: E. coli BL21(DE3)
# T12 sequence (P30405 45-207 K118A): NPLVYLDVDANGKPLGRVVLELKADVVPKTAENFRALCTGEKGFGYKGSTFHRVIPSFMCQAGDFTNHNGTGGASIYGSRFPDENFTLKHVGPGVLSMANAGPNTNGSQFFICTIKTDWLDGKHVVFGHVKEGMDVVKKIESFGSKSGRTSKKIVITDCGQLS
# In short: as §1
compound,measurement,setting,value
NCCOCCNC(=O)[C@@H]1CCNC(=O)/C=C/C(=O)N2CCC[C@](Cc3ccccc3)(C2)C(=O)N[C@@H](Cc2ccc(-c3ccc(CC(C(=O)O)C(=O)O)cc3)cc2)C(=O)NCc2ccccc2CC(=O)N1 [Compound B52],IC50,[1],8 nM
same,IC50,[2],300 nM
same,IC50,"[3]; Independent replicate 1, read-out: IC50 CypC",> 100000 nM
same,IC50,"[3]; Independent replicate 2, read-out: IC50 CypC",> 100000 nM
same,IC50,"[3]; Independent replicate 3, read-out: IC50 CypC",> 100000 nM
same,IC50,"[3]; Independent replicate 4, read-out: IC50 CypC",> 100000 nM
same,IC50,"[3]; prolyl-isomerase inhibition, 5 nM cyclophilin, read-out: IC50 CypC",> 100000 nM
same,IC50,"[3]; prolyl-isomerase inhibition, read-out: IC50 CypC",> 100000 nM
same,IC50,"[3]; wild-type CypC, read-out: Wild-Type Cyclophilin Prolyl Isomerase Inhibition IC50 Values, CypC",> 100000 nM
same,IC50,"[4]; Independent replicate 1, read-out: IC50 CypG",~80000 nM
same,IC50,"[4]; Independent replicate 2, read-out: IC50 CypG",> 100000 nM
same,IC50,"[4]; Independent replicate 3, read-out: IC50 CypG",~80000 nM
same,IC50,"[4]; Independent replicate 4, read-out: IC50 CypG",> 100000 nM
same,IC50,"[4]; prolyl-isomerase inhibition, 5 nM cyclophilin, read-out: IC50 CypG",> 100000 nM
same,IC50,"[4]; prolyl-isomerase inhibition, read-out: IC50 CypG",> 100000 nM
same,IC50,"[4]; wild-type CypG, read-out: Wild-Type Cyclophilin Prolyl Isomerase Inhibition IC50 Values, CypG",> 100000 nM
same,IC50,[5],240 nM
same,IC50,"[6]; Independent replicate 1, read-out: IC50 CypH",> 100000 nM
same,IC50,"[6]; Independent replicate 2, read-out: IC50 CypH",> 100000 nM
same,IC50,"[6]; Independent replicate 3, read-out: IC50 CypH",> 100000 nM
same,IC50,"[6]; Independent replicate 4, read-out: IC50 CypH",> 100000 nM
same,IC50,"[6]; prolyl-isomerase inhibition, 5 nM cyclophilin, read-out: IC50 CypH",> 100000 nM
same,IC50,"[6]; prolyl-isomerase inhibition, read-out: IC50 CypH",> 100000 nM
same,IC50,"[6]; wild-type CypH, read-out: Wild-Type Cyclophilin Prolyl Isomerase Inhibition IC50 Values, CypH",> 100000 nM
same,IC50,[7],20 nM
same,IC50,[8]; Independent replicate 2,900 ± 100 nM
same,IC50,[8]; Independent replicate 3,900 ± 300 nM
same,IC50,[8]; Independent replicate 4,1400 ± 500 nM
same,IC50,"[8]; prolyl-isomerase inhibition, 5 nM cyclophilin",1100 nM
same,IC50,[9],27 nM
same,IC50,"[10]; Independent replicate 1, read-out: IC50 CypE",210 ± 80 nM
same,IC50,"[10]; Independent replicate 2, read-out: IC50 CypE",400 ± 100 nM
same,IC50,"[10]; Independent replicate 3, read-out: IC50 CypE",300 ± 100 nM
same,IC50,"[10]; Independent replicate 4, read-out: IC50 CypE",360 ± 70 nM
same,IC50,"[10]; wild-type CypE, read-out: Wild-Type Cyclophilin Prolyl Isomerase Inhibition IC50 Values, CypE",310 nM
same,IC50,[11],17 nM
same,IC50,[12],73 nM
